Results taken from patent EP4772506A1, “COMPOUND FOR REGULATING ACTIVITY OF MICRORNA-124” (Jiangsu Chia Tai Fenghai Pharmaceutical Co., Ltd., priority 2023, dated 2025).
Marks after values point to notes of the source that are not given here.

Legend:
[1] = test system: miR124; assay: Effect of the compound on miR124 upregulation in PBMCs (qPCR, U6 as internal reference); assay type: cell-based, human; settings: miR-124 expression, 5 µM, 6 days, batches normalized
Description: The effect of test compounds on miR124 expression levels was evaluated in human peripheral blood mononuclear cells (PBMCs). […] Test compounds (final concentration: 5 µM) were added for treatment at 37°C, 5% CO2 for 6 days, with medium replacement on day 3. The control group was treated with an equal volume of DMSO under the same conditions.
RNA Extraction: On day 6, cells were collected in a 15 mL centrifuge tube and centrifuged at 400g for 10 min, followed by supernatant removal. […] The upper RNA layer was aspirated into a clean 1.5 mL centrifuge tube (RNase-free), an equal volume of isopropanol was added, and left at room temperature for 10 min to precipitate RNA. Centrifugation at 4°C and 12000g for 10 min yielded a small white pellet at the tube bottom.
Fluorescent quantitative PCR reaction: miRNA quantification was performed using SYBR Green I intercalating fluorescence method, with simultaneous detection of the housekeeping gene U6 transcript level as internal reference.

[2] = test system: dextran sulfate sodium (DSS)-induced ulcerative colitis; assay: Preventive and therapeutic effects on DSS-induced ulcerative colitis (UC) in mice; assay type: in vivo, C57BL/6 mice; settings: for relative body weight (% of initial): mean ± SEM; for Relative colon length (%): of the control group
Description: The preventive and therapeutic effects of the positive drug ABX464 and Compound 23 of the present disclosure on dextran sulfate sodium (DSS)-induced ulcerative colitis were evaluated using a DSS-induced ulcerative colitis (UC) model.
Female C57BL/6 mice (20-22 g) were randomly divided into 7 groups according to body weight after adaptive feeding, as shown in Table 4. On day 1, the mice were switched to 3% DSS feeding. After 10 days of DSS feeding, they were switched back to normal drinking water until day 13. From day 1 to day 13, the mice were continuously administered the corresponding solvents and drugs by gavage. Body weight changes were recorded daily from day 1 to day 13. On day 13, after recording body weight, the mice were dissected to measure colon length. The preventive and therapeutic effects of the test drug on ulcerative colitis in mice were evaluated based on relative body weight change rate and colon length. Table 4. Experimental animal grouping and model induction period

[3] = Pharmacokinetic study in rats (plasma, LC-MS/MS); settings: rat, po, 20 mg/kg
Description: • (1) SD male rats were used as test animals.
The administration solvent was a physiological saline solution containing 10% DMSO + 10% polyoxyl castor oil (Cremophor EL). Fasting was maintained for approximately 12 hours prior to administration, and free feeding was allowed 4 hours post-administration, with no water restriction. […] After gently inverting the tube to fully mix the anticoagulant EDTA-K2 with the blood, the tube was immediately placed on wet ice. The plasma was separated by centrifugation immediately after blood collection under the following centrifugation conditions: 4°C, 3500 rpm, and 5 min. The upper plasma layer was transferred and stored at -80°C until sample analysis. […] The pharmacokinetic parameters were calculated from the sample analysis results using WinNonlin software.

[4] = by day 10, 50 mg/kg qd by gavage
[5] = day 13, 50 mg/kg qd by gavage, 50 mg/kg
[6] = male, Sprague-Dawley (SD), plasma
[7] = 6.25-50 mg/kg qd by gavage, overall conclusion
[8] = day 13, 6.25 mg/kg qd by gavage
[9] = day 13, 12.5 mg/kg qd by gavage

FC(F)(F)Oc1ccc(Nc2ccc3cccc(Cl)c3n2)cc1 [ABX464, reference compound]
Average fold change compared to DMSO treatment, Average value [1]: 6.91 | weight loss [2, 4]: 6.02% | relative body weight (% of initial) ([2]; day 1, 50 mg/kg qd by gavage): 100±0.00% | relative body weight (% of initial) ([2]; day 2, 50 mg/kg qd by gavage): 101.6± 0.45% | relative body weight (% of initial) ([2]; day 3, 50 mg/kg qd by gavage): 101.9± 0.47% | relative body weight (% of initial) ([2]; day 4, 50 mg/kg qd by gavage): 101.9± 0.62% | relative body weight (% of initial) ([2]; day 5, 50 mg/kg qd by gavage): 101.1± 0.82% | relative body weight (% of initial) ([2]; day 6, 50 mg/kg qd by gavage): 98.5±0.79% | relative body weight (% of initial) ([2]; day 7, 50 mg/kg qd by gavage): 95.6±1.09% | relative body weight (% of initial) ([2]; day 8, 50 mg/kg qd by gavage): 93.5± 1.35% | relative body weight (% of initial) ([2]; day 9, 50 mg/kg qd by gavage): 93.0±1.33% | relative body weight (% of initial) ([2]; day 10, 50 mg/kg qd by gavage): 94.0± 1.27 % | relative body weight (% of initial) ([2]; day 11, 50 mg/kg qd by gavage): 92.4± 2.22 % | relative body weight (% of initial) ([2]; day 12, 50 mg/kg qd by gavage): 92.7±2.19% | Colon length Mean ([2]; day 13, 50 mg/kg qd by gavage): 7.72 cm | relative body weight (% of initial) ([2]; day 13, 50 mg/kg qd by gavage): 92.0±2.52% | Relative colon length (%) [2, 5]: 96.5% | AUC(0-t) [3, 6]: 2310 ng·h/mL | Cmax [3, 6]: 727 ng/mL | MRT inf [3, 6]: 2.73 h | Tmax [3, 6]: 2 h | half-life [3, 6]: 0.86 h

FC(F)(F)Oc1ccc(Nc2ncc3ccc(Cl)cc3n2)cc1 [Compound 23]
Average fold change compared to DMSO treatment, Average value [1]: 6.54 | effect on colon shortening in DSS-induced ulcerative colitis mice [2, 7]: good therapeutic effect on colon shortening | effect on weight loss in DSS-induced ulcerative colitis mice [2, 7]: favorable restorative effect on weight loss | weight loss ([2]; by day 9, 50 mg/kg qd by gavage): 3.09% | weight loss ([2]; by day 10, 6.25 mg/kg qd by gavage): 7.52% | weight loss ([2]; by day 10, 12.5 mg/kg qd by gavage): 8.99% | weight loss ([2]; by day 10, 25 mg/kg qd by gavage): 7.96% | weight loss [2, 4]: 3.8% | relative body weight (% of initial) ([2]; day 1, 6.25 mg/kg qd by gavage): 100±0.00% | relative body weight (% of initial) ([2]; day 1, 12.5 mg/kg qd by gavage): 100±0.00% | relative body weight (% of initial) ([2]; day 1, 25 mg/kg qd by gavage): 100±0.00% | relative body weight (% of initial) ([2]; day 1, 50 mg/kg qd by gavage): 100±0.00% | relative body weight (% of initial) ([2]; day 2, 6.25 mg/kg qd by gavage): 101.5± 0.43% | relative body weight (% of initial) ([2]; day 2, 12.5 mg/kg qd by gavage): 99.9±0.63% | relative body weight (% of initial) ([2]; day 2, 25 mg/kg qd by gavage): 100.5± 0.37% | relative body weight (% of initial) ([2]; day 2, 50 mg/kg qd by gavage): 99.1±0.65% | relative body weight (% of initial) ([2]; day 3, 6.25 mg/kg qd by gavage): 102.4± 0.78% | relative body weight (% of initial) ([2]; day 3, 12.5 mg/kg qd by gavage): 100.8± 0.67% | relative body weight (% of initial) ([2]; day 3, 25 mg/kg qd by gavage): 101.1± 0.59% | relative body weight (% of initial) ([2]; day 3, 50 mg/kg qd by gavage): 100.2±0.78% | relative body weight (% of initial) ([2]; day 4, 6.25 mg/kg qd by gavage): 101.9± 1.02% | relative body weight (% of initial) ([2]; day 4, 12.5 mg/kg qd by gavage): 99.9 ± 0.87% | relative body weight (% of initial) ([2]; day 4, 25 mg/kg qd by gavage): 100.8± 0.44% | relative body weight (% of initial) ([2]; day 4, 50 mg/kg qd by gavage): 100.0±0.74% | relative body weight (% of initial) ([2]; day 5, 6.25 mg/kg qd by gavage): 101.7± 0.98% | relative body weight (% of initial) ([2]; day 5, 12.5 mg/kg qd by gavage): 100.5± 0.88% | relative body weight (% of initial) ([2]; day 5, 25 mg/kg qd by gavage): 99.8±0.61% | relative body weight (% of initial) ([2]; day 5, 50 mg/kg qd by gavage): 100.7±1.01% | relative body weight (% of initial) ([2]; day 6, 6.25 mg/kg qd by gavage): 100±0.97% | relative body weight (% of initial) ([2]; day 6, 12.5 mg/kg qd by gavage): 97.4±0.87% | relative body weight (% of initial) ([2]; day 6, 25 mg/kg qd by gavage): 97.5±0.81% | relative body weight (% of initial) ([2]; day 6, 50 mg/kg qd by gavage): 98.0±1.15% | relative body weight (% of initial) ([2]; day 7, 6.25 mg/kg qd by gavage): 96.4±1.18% | relative body weight (% of initial) ([2]; day 7, 12.5 mg/kg qd by gavage): 95.0±1.12% | relative body weight (% of initial) ([2]; day 7, 25 mg/kg qd by gavage): 95.3±0.98% | relative body weight (% of initial) ([2]; day 7, 50 mg/kg qd by gavage): 96.9±1.03% | relative body weight (% of initial) ([2]; day 8, 6.25 mg/kg qd by gavage): 94.4±1.50% | relative body weight (% of initial) ([2]; day 8, 12.5 mg/kg qd by gavage): 92.7±1.28% | relative body weight (% of initial) ([2]; day 8, 25 mg/kg qd by gavage): 93.7±1.43% | relative body weight (% of initial) ([2]; day 8, 50 mg/kg qd by gavage): 96.7±1.20% | relative body weight (% of initial) ([2]; day 9, 6.25 mg/kg qd by gavage): 93.4±1.75% | relative body weight (% of initial) ([2]; day 9, 12.5 mg/kg qd by gavage): 92.7±1.55% | relative body weight (% of initial) ([2]; day 9, 25 mg/kg qd by gavage): 92.6±2.25% | relative body weight (% of initial) ([2]; day 9, 50 mg/kg qd by gavage): 96.9± 1.41 % | relative body weight (% of initial) ([2]; day 10, 6.25 mg/kg qd by gavage): 92.5± 2.02 % | relative body weight (% of initial) ([2]; day 10, 12.5 mg/kg qd by gavage): 91.0± 1.78 % | relative body weight (% of initial) ([2]; day 10, 25 mg/kg qd by gavage): 92.0± 2.38 % | relative body weight (% of initial) ([2]; day 10, 50 mg/kg qd by gavage): 96.2± 1.38 % | relative body weight (% of initial) ([2]; day 11, 6.25 mg/kg qd by gavage): 92.4±2.22% | relative body weight (% of initial) ([2]; day 11, 12.5 mg/kg qd by gavage): 91.9±1.91% | relative body weight (% of initial) ([2]; day 11, 25 mg/kg qd by gavage): 94.6± 1.73 % | relative body weight (% of initial) ([2]; day 11, 50 mg/kg qd by gavage): 96.6± 1.45 % | relative body weight (% of initial) ([2]; day 12, 6.25 mg/kg qd by gavage): 92.7±2.19% | relative body weight (% of initial) ([2]; day 12, 12.5 mg/kg qd by gavage): 92.1±1.17% | relative body weight (% of initial) ([2]; day 12, 25 mg/kg qd by gavage): 93.5±1.57% | relative body weight (% of initial) ([2]; day 12, 50 mg/kg qd by gavage): 96.5± 1.62 % | Colon length Mean [2, 8]: 7.18 cm | relative body weight (% of initial) [2, 8]: 92.0±2.52% | Colon length Mean [2, 9]: 7.85 cm | relative body weight (% of initial) [2, 9]: 92.1±1.17% | Colon length Mean ([2]; day 13, 25 mg/kg qd by gavage): 7.28 cm | relative body weight (% of initial) ([2]; day 13, 25 mg/kg qd by gavage): 95.3±1.63% | Colon length Mean ([2]; day 13, 50 mg/kg qd by gavage): 8.27 cm | relative body weight (% of initial) ([2]; day 13, 50 mg/kg qd by gavage): 96.5± 1.62 % | Relative colon length (%) ([2]; day 13, 6.25 mg/kg qd by gavage, 6.25 mg/kg): 89.8### % | Relative colon length (%) ([2]; day 13, 6.25 mg/kg qd by gavage, listed as compound 23, 6.25 mg/kg): 89.79% | Relative colon length (%) ([2]; day 13, 12.5 mg/kg qd by gavage, 12.5 mg/kg): 98.1#### % | Relative colon length (%) ([2]; day 13, 12.5 mg/kg qd by gavage, listed as compound 23, 12.5 mg/kg): 98.1% | Relative colon length (%) ([2]; day 13, 25 mg/kg qd by gavage, 25 mg/kg): 90.9#### % | Relative colon length (%) ([2]; day 13, 25 mg/kg qd by gavage, listed as compound 23, 25 mg/kg): 90.9% | Relative colon length (%) [2, 5]: 103.4#### % | Relative colon length (%) ([2]; day 13, 50 mg/kg qd by gavage, listed as compound 23, 50 mg/kg): 103.3% | AUC(0-t) ([3]; in vivo): 5060 ng·h/mL | Cmax ([3]; in vivo): 1850 ng/mL | MRT inf ([3]; in vivo): 2.2 h | Tmax ([3]; in vivo): 2 h | half-life ([3]; in vivo): 2.65 h
